In patent publication US5610063A, “cDNA for α-N-acetyl-galactosaminidase from Gallus domesticus” (Curators of the University of Missouri, priority 1995, dated 1997):

Target: T1, Gallus α-N-acetyl-galactosaminidase (Gallus gallus, UniProt Q90744)
T1 construct: mature glycoprotein, about 145 kDa oligomer
T1 sequence (Q90744 1-405 S162A): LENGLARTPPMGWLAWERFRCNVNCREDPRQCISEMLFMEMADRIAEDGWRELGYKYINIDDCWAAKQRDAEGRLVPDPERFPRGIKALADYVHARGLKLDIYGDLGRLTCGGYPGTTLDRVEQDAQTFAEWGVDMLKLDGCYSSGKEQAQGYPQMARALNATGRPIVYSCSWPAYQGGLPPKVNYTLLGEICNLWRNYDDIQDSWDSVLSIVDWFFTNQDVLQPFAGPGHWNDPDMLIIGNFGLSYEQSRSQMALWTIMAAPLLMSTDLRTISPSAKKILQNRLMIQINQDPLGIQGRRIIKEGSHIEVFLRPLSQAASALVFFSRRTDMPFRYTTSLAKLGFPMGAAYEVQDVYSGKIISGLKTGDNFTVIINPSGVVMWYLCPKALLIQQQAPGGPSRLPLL
Test: Affinity ligand chromatography
Assay type: binding, Gallus domesticus
Conditions: Affi-Gel 10 coupled ligand
Protocol: Synthesis of affinity ligand and resin: .xi.-aminohexanoyl-α-D-galactopyranosYlamine was synthesized by a modification of the method of Harpaz et al. (1974). Purity of the product was determined by thin-layer chromatography and mass spectroscopy. The ligand was coupled to Affi-Gel™ 10 per the manufacturer's directions. Coupling efficiencies of 80%.
Step 5. After dialysis, the pool was applied to a 1.5×20 cm .xi.-aminohexanoyl-α-D-galactopyranosylamine Affi-Gel™ 10 column equilibrated in 50 mM Na acetate+0.1% Triton X-100+0.01% NAN3, pH 5.0. The column was washed with 90 mls of equilibration buffer, and the enzyme was eluted with 50 mM NaH2 PO4 +100 mM methyl-α-D-galactopyranoside+0.1% Triton X-100+0.01% NAN3, pH 7.0. Active fractions were pooled, concentrated, and dialyzed into 50 mM Na acetate+0.1% Triton X-100+0.01% NaN3, pH 5.0.
7. Load the filtrate onto a 2.5×15.0 cm ε-amino-hexanoyl-α-D-galactopyranosylamine Affi-Gel™ 10 column equilibrated with 10 mM NaH2 PO4, pH 5.5 at 4° C. Wash the column with 300 ml of 75 mM NaH2 PO4 pH 5.5. Elute the enzyme from the column with 300 ml (range 50 to 500) of 50 mM NaH2 PO4 +100 mM D-(+)-Galactose, pH 7.0.

NCCCCCC(=O)N[C@H]1O[C@H](CO)[C@H](O)[C@H](O)[C@H]1O [.xi.-aminohexanoyl-α-D-galactopyranosylamine]
active site specific affinity ligand (in words): efficient active site specific affinity ligand
